Source: ChEMBL document CHEMBL1201862, “PubChem BioAssay data set” (2004)
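Tested at 5 concentrations; 48 h exposure; 96-well plates; endpoints linearly interpolated, else capped at highest concentration. At the GI50, growth is halved.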 Active and inactive are the calls of the source. No stated cut-off is given here; in the data, active = GI50 up to about 1.1 µM and inactive = higher.

How the values were obtained:
Experiment in all cases: inhibition of tumour cell growth, NCI panel, 48 h
A498 = system: A498
COLO 205 = system: COLO 205
HL-60 = system: HL-60
HOP-62 = system: HOP-62
K562 = system: K562
KM12 = system: KM12
MOLT-4 = system: MOLT-4
OVCAR-3 = system: OVCAR-3
OVCAR-4 = system: OVCAR-4
OVCAR-5 = system: OVCAR-5
SK-MEL-28 = system: SK-MEL-28
SK-OV-3 = system: SK-OV-3
SN12C = system: SN12C
SNB-75 = system: SNB-75
U-251 = system: U-251
UO-31 = system: UO-31
Malme-3M = system: Malme-3M

Measured: GI50

CCC(=O)C(C(=O)CC)c1c(OC(=O)c2ccccc2)ccc(O)c1C(=O)OC
inactive: A498 > 100 µM | COLO 205 > 100 µM | HL-60 > 100 µM | HOP-62 > 100 µM | K562 > 100 µM | KM12 > 100 µM | MOLT-4 72.3 µM | OVCAR-3 > 100 µM | OVCAR-4 > 100 µM | OVCAR-5 > 100 µM | SK-MEL-28 > 100 µM | SK-OV-3 > 100 µM | SN12C > 100 µM | SNB-75 90.8 µM | U-251 > 100 µM | UO-31 > 100 µM

C1=CC(=P(c2ccccc2)(c2ccccc2)c2ccccc2)C=C1
inactive: COLO 205 4.13 µM | HL-60 2.77 µM | HOP-62 18.4 µM | K562 3.45 µM | KM12 9.31 µM | MOLT-4 5.4 µM | Malme-3M 4.75 µM | OVCAR-3 10.7 µM | OVCAR-4 13.9 µM | OVCAR-5 14.7 µM | SK-MEL-28 4.45 µM | SK-OV-3 18.2 µM | SN12C 10.3 µM | SNB-75 3.37 µM | UO-31 15.9 µM

c1cncc(CSc2nc3ccccc3nc2-c2cccs2)c1
inactive: COLO 205 > 100 µM | HL-60 13 µM | HOP-62 71.3 µM | K562 39.8 µM | KM12 48.6 µM | MOLT-4 24.8 µM | Malme-3M 46.1 µM | OVCAR-3 20.9 µM | OVCAR-4 53.6 µM | OVCAR-5 > 100 µM | SK-MEL-28 > 100 µM | SN12C 77.1 µM | SNB-75 > 100 µM | UO-31 36.4 µM

N#CC(C(=O)C(=O)Nc1ccccc1)c1ccccc1 (stereo unspecified)
inactive: HL-60 > 100 µM | K562 > 100 µM | KM12 > 100 µM | MOLT-4 > 100 µM | Malme-3M > 100 µM | OVCAR-3 > 100 µM | SK-MEL-28 > 100 µM | SK-OV-3 > 100 µM | SN12C > 100 µM | SNB-75 > 100 µM | U-251 > 100 µM | UO-31 > 100 µM

CO/N=C(/C(=O)Nc1c[n+](CC(=O)[O-])cs1)c1csc(N)n1
inactive: A498 > 100 µM | COLO 205 > 100 µM | HL-60 > 100 µM | K562 > 100 µM | KM12 > 100 µM | MOLT-4 > 100 µM | Malme-3M > 100 µM | OVCAR-3 > 100 µM | OVCAR-5 > 100 µM | SK-OV-3 > 100 µM | SN12C > 100 µM | U-251 > 100 µM | UO-31 > 100 µM

COc1ccc(NC(=O)CCc2cc(-c3ccc(O)c(OC)c3)nc(NC#N)n2)cc1
inactive: COLO 205 > 100 µM | HL-60 > 100 µM | HOP-62 > 100 µM | K562 > 100 µM | KM12 > 100 µM | MOLT-4 > 100 µM | Malme-3M > 100 µM | OVCAR-3 > 100 µM | OVCAR-4 > 100 µM | OVCAR-5 > 100 µM | SK-MEL-28 > 100 µM | SK-OV-3 > 100 µM | SN12C > 100 µM | U-251 > 100 µM | UO-31 > 100 µM

Clc1ccc(-c2nnc(-c3nn(-c4ccccc4)c4nc5ccccc5nc34)o2)cc1
inactive: COLO 205 > 100 µM | HL-60 22.5 µM | HOP-62 > 100 µM | K562 38.2 µM | KM12 > 100 µM | MOLT-4 26.9 µM | Malme-3M 84.3 µM | OVCAR-3 34.1 µM | OVCAR-4 28 µM | OVCAR-5 > 100 µM | SK-MEL-28 > 100 µM | SK-OV-3 > 100 µM | SN12C > 100 µM | SNB-75 95.1 µM | U-251 84.7 µM | UO-31 > 100 µM

OCCNCO
inactive: A498 > 100 µM | COLO 205 > 100 µM | HL-60 46.8 µM | HOP-62 > 100 µM | K562 > 100 µM | KM12 > 100 µM | MOLT-4 > 100 µM | OVCAR-3 > 100 µM | OVCAR-4 > 100 µM | OVCAR-5 > 100 µM | SK-MEL-28 > 100 µM | SK-OV-3 > 100 µM | SN12C > 100 µM | SNB-75 > 100 µM | U-251 > 100 µM | UO-31 > 100 µM

CC(=O)n1c(=O)c2cc3c(=O)n(-c4cccc(C#N)c4)c(=O)c3cc2c1=O
inactive: A498 > 100 µM | COLO 205 > 100 µM | HL-60 > 100 µM | HOP-62 45.5 µM | K562 > 100 µM | KM12 > 100 µM | Malme-3M > 100 µM | OVCAR-3 > 100 µM | OVCAR-4 > 100 µM | OVCAR-5 > 100 µM | SK-MEL-28 > 100 µM | SK-OV-3 > 100 µM | SN12C > 100 µM | SNB-75 23.7 µM | U-251 24.2 µM | UO-31 > 100 µM

CSc1nc2nccnc2c(=O)[nH]1
inactive: A498 > 100 µM | COLO 205 > 100 µM | HL-60 > 100 µM | HOP-62 > 100 µM | K562 > 100 µM | MOLT-4 > 100 µM | Malme-3M > 100 µM | OVCAR-4 > 100 µM | OVCAR-5 > 100 µM | SK-MEL-28 > 100 µM | SK-OV-3 > 100 µM | SN12C > 100 µM | SNB-75 > 100 µM | U-251 > 100 µM | UO-31 > 100 µM

CCOC(=O)C1=C(C)NC2=C(C(=O)N(c3ccccc3)C2c2ccccc2)C1c1ccccc1 (stereo unspecified)
inactive: COLO 205 18.7 µM | HL-60 26.1 µM | HOP-62 17.1 µM | K562 29.9 µM | KM12 17.1 µM | MOLT-4 19.8 µM | Malme-3M 17.9 µM | OVCAR-3 12.3 µM | OVCAR-5 16.3 µM | SK-MEL-28 17.7 µM | SK-OV-3 17.1 µM | SN12C 17.9 µM | SNB-75 12.3 µM | U-251 15.1 µM | UO-31 19.8 µM

O=C(O)CCSC(=O)Nc1ccc([N+](=O)[O-])cc1
inactive: A498 > 100 µM | COLO 205 > 100 µM | HL-60 > 100 µM | HOP-62 > 100 µM | K562 > 100 µM | KM12 > 100 µM | MOLT-4 > 100 µM | OVCAR-3 > 100 µM | OVCAR-4 > 100 µM | SK-MEL-28 > 100 µM | SN12C > 100 µM | SNB-75 19.4 µM | U-251 > 100 µM | UO-31 > 100 µM

COc1ccc(-c2oc(/C=N/c3ccccc3)c([N+](=O)[O-])c2-c2ccc(OC)c(OC)c2)cc1OC
inactive: COLO 205 > 100 µM | HL-60 > 100 µM | HOP-62 > 100 µM | K562 > 100 µM | KM12 > 100 µM | MOLT-4 > 100 µM | Malme-3M > 100 µM | OVCAR-3 > 100 µM | OVCAR-4 > 100 µM | OVCAR-5 > 100 µM | SK-MEL-28 > 100 µM | SK-OV-3 > 100 µM | SN12C > 100 µM | SNB-75 > 100 µM | U-251 > 100 µM | UO-31 > 100 µM

COC(=O)C1Cc2c([nH]c3ccccc23)[C@H](CC(C)C)N1 (stereo partly specified)
inactive: A498 > 100 µM | COLO 205 > 100 µM | HL-60 > 100 µM | HOP-62 > 100 µM | K562 > 100 µM | KM12 > 100 µM | MOLT-4 > 100 µM | Malme-3M > 100 µM | OVCAR-3 > 100 µM | OVCAR-5 > 100 µM | SK-MEL-28 > 100 µM | SK-OV-3 > 100 µM | SN12C > 100 µM | SNB-75 97.5 µM | U-251 > 100 µM | UO-31 > 100 µM

[O-][S+](c1ccc(O)cc1)c1ccc(O)cc1
inactive: COLO 205 > 100 µM | HL-60 > 100 µM | HOP-62 > 100 µM | K562 > 100 µM | KM12 > 100 µM | MOLT-4 > 100 µM | Malme-3M > 100 µM | OVCAR-3 > 100 µM | OVCAR-4 > 100 µM | OVCAR-5 > 100 µM | SK-MEL-28 > 100 µM | SK-OV-3 > 100 µM | SNB-75 > 100 µM | U-251 > 100 µM | UO-31 > 100 µM

N#CC(C#N)=C(N)/C(C#N)=C\c1ccnc2ccccc12
inactive: COLO 205 > 100 µM | HL-60 2.01 µM | HOP-62 23.9 µM | K562 4.24 µM | KM12 25.7 µM | MOLT-4 15.8 µM | Malme-3M 24.8 µM | OVCAR-3 31.3 µM | OVCAR-4 72.6 µM | OVCAR-5 > 100 µM | SK-MEL-28 20.2 µM | SN12C 18.8 µM | SNB-75 31.4 µM | U-251 20 µM | UO-31 18.2 µM

C(=C\C(Sc1ccccc1)c1ccccc1)/NNC1=NN=C(c2ccccc2)C(c2ccccc2)N1 (stereo unspecified)
inactive: COLO 205 32.2 µM | HL-60 15.2 µM | HOP-62 16.5 µM | K562 13.1 µM | KM12 58.3 µM | MOLT-4 8.2 µM | Malme-3M 50 µM | OVCAR-3 33.4 µM | OVCAR-4 83 µM | OVCAR-5 35.5 µM | SK-MEL-28 > 100 µM | SK-OV-3 > 100 µM | SN12C 55 µM | SNB-75 > 100 µM | U-251 30 µM | UO-31 18.8 µM

c1ccc(COc2ccc3[nH]c4c5c6ccccc6nc-5c[nH]c4c3c2)cc1
inactive: A498 21.6 µM | COLO 205 19 µM | HL-60 2.19 µM | HOP-62 15.8 µM | K562 2.48 µM | KM12 14.7 µM | MOLT-4 7.62 µM | Malme-3M 13.5 µM | OVCAR-3 15.9 µM | OVCAR-5 19.4 µM | SK-MEL-28 17.2 µM | SK-OV-3 18.4 µM | SN12C 15.4 µM | SNB-75 12.7 µM | U-251 11.7 µM | UO-31 18.7 µM
